Experimental data from US6867284B1, “Peptide inhibitors of hepatitis C virus NS3 protease” (Istituto di Ricerche di Biologia Molecolare P. Angeletti …, priority 1998, dated 2005).
Numbered stars: 1 amine (or outer) side, 2 acyl side, 3 side chain; on linkers, the order of the positions; unused ones are H or OH. Square brackets hold non-standard residues; d marks the D form. Peptide text beside a SMILES is read from it. * marks the point of attachment. ξ: configuration not given here. ξAbu(4,4-F2)ψ(COCO) = O=C(C(=O)[*:2])C(CC(F)F)N[*:1]; Dip = N[C@H](C(=O)O)C(c1ccccc1)c1ccccc1; ξAla(CF3) = NC(CC(F)(F)F)C(=O)O; Cha = N[C@@H](CC1CCCCC1)C(=O)O; X3 = O=C(C(CC(F)F)N[*:1])[*:2]; X4 = COC(=O)C(=O)C(CC(F)F)N*; X9 = O=C(O)CC(CC(F)F)N*; NHBn = c1ccc(CN*)cc1

The molecules below were run against T1, HCV NS3 protease (Hepatitis C virus genotype 1b, UniProt P26663) (assay: Inhibition of NS3 protease (HPLC cleavage assay, NS3/4A complex with Pep4AK, substrate peptide 4AB)). Settings: not given.
T1 construct: an NS3/4A complex comprising the NS3 protease domain
Type: biochemical
Description: Buffer solutions containing 80 μM Pep4AK were preincubated for 10 minutes with 10-200 nM protease and reactions were started by addition of substrate. Six duplicate data points at different substrate concentrations were used to calculate kinetic parameters. Incubation times were chosen in order to obtain <7% substrate conversion and reactions were stopped by addition of 40 μl 1% TFA. Cleavage of peptide substrates was determined by HPLC using a Merck-Hitachi chromatograph equipped with an autosampler. 80 μl samples were injected on a Lichrospher C18 reversed phase cartridge column (4×74 mm, 5 μm, Merck) and fragments were separated using a 10-40% acetonitrile gradient a 5%/min using a flow rate of 2.5 ml/min. Peak detection was accomplished by monitoring both the absorbance at 220 nm and tyrosine fluorescence (λex=260 nm, λem=305 nm). Cleavage products were quantitated by integration of chromatograms with respect to appropriate standards. Kinetic parameters were calculated from nonlinear least-squares fit of initial rates as a function of substrate concentration with the help of a Kaleidagraph software, assuming Michaelis-Menten kinetics.
Ki values of peptide inhibitors were calculated from substrate titration experiments performed in the presence of increasing amounts of inhibitor. Experimental data sets were simultaneously fitted to eq.1 using a multicurve fit macro with the help of a Sigmaplot software: V=(VmaxS)/(Km(1+[…])+S); (eq.1)
Alternatively, Ki values were derived from IC50 values, calculated using a four-parameter logistic function, according to eq.2: IC50−(1+S/Km)Ki (eq.2)

T1 sequence (P26663 1027-1208, other chains not shown): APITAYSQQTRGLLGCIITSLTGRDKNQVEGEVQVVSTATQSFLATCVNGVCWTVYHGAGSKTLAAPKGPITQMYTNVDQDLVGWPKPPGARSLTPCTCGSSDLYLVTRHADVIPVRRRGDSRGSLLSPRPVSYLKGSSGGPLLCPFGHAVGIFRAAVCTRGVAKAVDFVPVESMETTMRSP

| IC50 | Compound |
| --- | --- |
| 26000 nM | CC(C)C[C@H](NC(=O)CC(CC(=O)O)c1ccccc1)C(=O)NC(CC(F)F)C(=O)C(=O)O (mixture of isomers) [Compound 7j] |

Same assay, conditions: Table 1 hexapeptides, cells printed in nM; read-out: IC50

| Compound | IC50 |
| --- | --- |
| CC(=O)N[C@@H](CC(=O)O)C(=O)N[C@@H](CCC(=O)O)C(=O)N[C@H](C(=O)N[C@@H](CCC(=O)O)C(=O)N[C@@H](CC1CCCCC1)C(=O)NC(C=O)CC(F)F)C(c1ccccc1)c1ccccc1 (single isomer, unassigned) [Compound 1c (L)] | 0.5 nM |
| CC(=O)N[C@@H](CC(=O)O)C(=O)N[C@@H](CCC(=O)O)C(=O)N[C@H](C(=O)N[C@@H](CCC(=O)O)C(=O)N[C@@H](CC1CCCCC1)C(=O)NC(CC(F)(F)F)C(=O)O)C(c1ccccc1)c1ccccc1 (stereo partly shown) [Compound 1g] (Ac-DE[Dip]E[Cha][ξAla(CF3)]-OH) | 100 nM |
| COC(=O)C(=O)C(CC(F)F)NC(=O)[C@H](CC1CCCCC1)NC(=O)[C@H](CCC(=O)O)NC(=O)[C@@H](NC(=O)[C@H](CCC(=O)O)NC(=O)[C@H](CC(=O)O)NC(C)=O)C(c1ccccc1)c1ccccc1 (stereo partly shown) [Compound 1f] (Ac-DE[Dip]E[Cha]-X4) | 800 nM |
| CC(=O)N[C@@H](CC(=O)O)C(=O)N[C@@H](CCC(=O)O)C(=O)N[C@H](C(=O)N[C@@H](CCC(=O)O)C(=O)N[C@@H](CC1CCCCC1)C(=O)NC(CC(F)F)C(=O)C(=O)NCc1ccccc1)C(c1ccccc1)c1ccccc1 (stereo partly shown) [Compound 1e] (Ac-DE[Dip]E[Cha][ξAbu(4,4-F2)ψ(COCO)]-NHBn) | 5 nM |
| CSCC[C@H](NC(=O)[C@H](CCC(=O)O)NC(=O)[C@H](CC(=O)O)NC(C)=O)C(=O)N[C@@H](CCC(=O)O)C(=O)N[C@@H](CCC(=O)O)C(=O)NC(C=O)CC(F)F (stereo partly shown) [Compound 1n] (Ac-DEMEE[X3]-aldehyde) | 148 nM |

Same assay, conditions: Table 1 hexapeptides, cells printed in μM; read-out: IC50

| Compound | IC50 |
| --- | --- |
| CC(=O)N[C@@H](CC(=O)O)C(=O)N[C@@H](CCC(=O)O)C(=O)N[C@H](C(=O)N[C@@H](CCC(=O)O)C(=O)N[C@@H](CC1CCCCC1)C(=O)NC(CC(=O)O)CC(F)F)C(c1ccccc1)c1ccccc1 (stereo partly shown) [Compound 1h] (Ac-DE[Dip]E[Cha]-X9) | 3000 nM |

Same assay, conditions: Table 2 tetrapeptides and tripeptides; read-out: IC50

| Compound | IC50 |
| --- | --- |
| CCC(C)[C@H](NC(=O)OCc1ccccc1)C(=O)N[C@@H](CC)C(=O)NC(CC(F)F)C(=O)C(=O)O (stereo partly shown) [Compound 3e] | 3000 nM |
| CCC(C)[C@H](NC(=O)NCc1ccccc1)C(=O)N[C@@H](CC(C)C)C(=O)NC(CC(F)F)C(=O)C(=O)O (stereo partly shown) [Compound 4a] | 6500 nM |
| CC(C)C[C@H](NC(=O)[C@H](CC(=O)O)NC(=O)OC(C)(C)C)C(=O)NC(CC(F)F)C(=O)C(=O)O (stereo partly shown) [Compound 5m] | 1600 nM |
| CC(C)C[C@H](NC(=O)[C@@H](NC(=O)OC(C)(C)C)C(C)C)C(=O)NC(CC(F)F)C(=O)C(=O)O (stereo partly shown) [Compound 5d] | 500 nM |
| CCC(C)[C@H](NC(=O)OCc1ccccc1)C(=O)N[C@@H](Cc1ccccc1)C(=O)NC(CC(F)F)C(=O)C(=O)O (stereo partly shown) [Compound 3f] | 3000 nM |
| CC(C)C[C@H](NC(=O)[C@@H](NC(=O)OC(C)(C)C)C1CCCC1)C(=O)NC(CC(F)F)C(=O)C(=O)O (stereo partly shown) [Compound 5u] | 400 nM |
| CC(C)C[C@H](NC(=O)[C@H](CC(=O)OCc1ccccc1)NC(=O)OC(C)(C)C)C(=O)NC(CC(F)F)C(=O)C(=O)O (stereo partly shown) [Compound 5l] | 3500 nM |
| CCC(C)[C@H](NC(=O)OCc1ccccc1)C(=O)N[C@@H](C)C(=O)NC(CC(F)F)C(=O)C(=O)O (stereo partly shown) [Compound 3g] | 16000 nM |
| CC[C@@H](C)[C@H](NC(=O)OC(C)(C)C)C(=O)N[C@@H](CC(C)C)C(=O)NC(CC(F)F)C(=O)C(=O)O (stereo partly shown) [Compound 5a] | 700 nM |

Same assay, conditions: Table 3 capped dipeptide keto acids; read-out: IC50

| Compound | IC50 |
| --- | --- |
| CC(C)C[C@H](NC(=O)Cc1ccc(CC(=O)O)cc1)C(=O)NC(CC(F)F)C(=O)C(=O)O (mixture of isomers) [Compound 8d] | 7000 nM |
| CCCC(CCC)C(=O)N[C@@H](CC(C)C)C(=O)NC(CC(F)F)C(=O)C(=O)O (mixture of isomers) [Compound 7c] | 78000 nM |
| CC(C)C[C@H](NC(=O)C1OC(=O)CC12CCCC2)C(=O)NC(CC(F)F)C(=O)C(=O)O (mixture of isomers) [Compound 8m] | 60000 nM |
| CC(C)C[C@H](NC(=O)C1(CCC(=O)O)CCCC1)C(=O)NC(CC(F)F)C(=O)C(=O)O (mixture of isomers) [Compound 7o] | 22000 nM |
| CC(C)C[C@H](NC(=O)C(Cc1ccccc1)c1ccccc1)C(=O)NC(CC(F)F)C(=O)C(=O)O (mixture of isomers) [Compound 8j] | 100000 nM |
| CC(C)C[C@H](NC(=O)c1ccccc1-c1ccccc1C(=O)O)C(=O)NC(CC(F)F)C(=O)C(=O)O (single isomer, unassigned) [Compound 8g] | 4000 nM |
| CC(C)C[C@H](NC(=O)CC(CC(=O)O)c1ccc(Cl)cc1)C(=O)NC(CC(F)F)C(=O)C(=O)O (mixture of isomers) [Compound 7k] | 35000 nM |
| CC(C)C[C@H](NC(=O)C(Sc1ccccc1)c1ccccc1)C(=O)NC(CC(F)F)C(=O)C(=O)O (mixture of isomers) [Compound 8i] | 28000 nM |
| CC(C)C[C@H](NC(=O)[C@H](O)c1ccccc1Cl)C(=O)NC(CC(F)F)C(=O)C(=O)O (mixture of isomers) [Compound 8r] | 82000 nM |
| CC(C)C[C@H](NC(=O)CC1(CC(=O)O)OCCO1)C(=O)NC(CC(F)F)C(=O)C(=O)O (single isomer, unassigned) [Compound 7p] | 15000 nM |
| CC(C)C[C@H](NC(=O)CN(CC(=O)O)C(=O)OCc1ccccc1)C(=O)NC(CC(F)F)C(=O)C(=O)O (single isomer, unassigned) [Compound 7i] | 20000 nM |
| CC(C)C[C@H](NC(=O)CC1(CC(=O)O)CCCC1)C(=O)NC(CC(F)F)C(=O)C(=O)O (single isomer, unassigned) [Compound 7l] | 1000 nM |
| COc1ccc(C(Oc2ccccc2)C(=O)N[C@@H](CC(C)C)C(=O)NC(CC(F)F)C(=O)C(=O)O)cc1 (mixture of isomers) [Compound 8k] | 72000 nM |

Same assay, conditions: Table 4 indoline keto acids and related; read-out: IC50

| Compound | IC50 |
| --- | --- |
| CC(C)C[C@H](NC(=O)C1(CC(C)C)CCC(=O)N1)C(=O)NC(CC(F)F)C(=O)C(=O)O (mixture of isomers) [Compound 11] | 43000 nM |
| CC(C)C[C@H](NC(=O)C1Cc2ccc(OC3CCS(=O)(=O)CC3)cc2N1)C(=O)NC(CC(F)F)C(=O)C(=O)O (single isomer, unassigned) [Compound 10i] | 30000 nM |
| CC(C)C[C@H](NC(=O)C1Cc2ccc(OCC3CC3)cc2N1)C(=O)NC(CC(F)F)C(=O)C(=O)O (mixture of isomers) [Compound 10d] | 66000 nM |
| COc1cccc(CC2(C(=O)N[C@@H](CC(C)C)C(=O)NC(CC(F)F)C(=O)C(=O)O)Cc3ccccc3N2)c1 (mixture of isomers) [Compound 9s] | 38000 nM |
| CC(C)C[C@H](NC(=O)C1(Cc2cccc(Br)c2)Cc2ccccc2N1)C(=O)NC(CC(F)F)C(=O)C(=O)O (mixture of isomers) [Compound 9r] | 100000 nM |
| CC(C)C[C@H](NC(=O)C1(Cc2cccc(Oc3ccccc3)c2)Cc2ccccc2N1)C(=O)NC(CC(F)F)C(=O)C(=O)O (mixture of isomers) [Compound 9v] | 24000 nM |
| CC(C)CC(NC(=O)C1(Cc2cccc(C#N)c2)Cc2ccccc2N1)C(=O)NC(CC(F)F)C(=O)C(=O)O (mixture of isomers) [Compound 9t] | 9000 nM |
| CCC(C)CC1(C(=O)N[C@@H](CC(C)C)C(=O)NC(CC(F)F)C(=O)C(=O)O)Cc2ccccc2N1 (mixture of isomers) [Compound 9h] | 81000 nM |
| COCCOCC1(C(=O)N[C@@H](CC(C)C)C(=O)NC(CC(F)F)C(=O)C(=O)O)Cc2ccccc2N1 (mixture of isomers) [Compound 9m] | 57000 nM |
| CC(C)C[C@H](NC(=O)C1(C2CCCCC2)Cc2ccccc2N1)C(=O)NC(CC(F)F)C(=O)C(=O)O (mixture of isomers) [Compound 9k] | 69000 nM |
| CC(C)C[C@H](NC(=O)C1(CC(C)C)Cc2ccccc2N1)C(=O)NC(CC(F)F)C(=O)C(=O)O (mixture of isomers) [Compound 9d] | 16000 nM |
